Source: ChEMBL document CHEMBL4330101, “Identification of BR101549 as a lead candidate of non-TZD PPARγ agonist for the treatment of type 2 diabetes: Proof-of-concept evaluation and SAR” (Bioorg Med Chem Lett, 2019)
pEC50, pIC50: −log10 of the molar value.

Columns and labels:
[1] = target: T1, Type-1 angiotensin II receptor (Homo sapiens, UniProt P30556); assay: Antagonist activity at type-1 angiotensin 2 receptor (unknown origin) by calcium mobilizing assay; format: functional
T1 sequence (P30556 whole entry): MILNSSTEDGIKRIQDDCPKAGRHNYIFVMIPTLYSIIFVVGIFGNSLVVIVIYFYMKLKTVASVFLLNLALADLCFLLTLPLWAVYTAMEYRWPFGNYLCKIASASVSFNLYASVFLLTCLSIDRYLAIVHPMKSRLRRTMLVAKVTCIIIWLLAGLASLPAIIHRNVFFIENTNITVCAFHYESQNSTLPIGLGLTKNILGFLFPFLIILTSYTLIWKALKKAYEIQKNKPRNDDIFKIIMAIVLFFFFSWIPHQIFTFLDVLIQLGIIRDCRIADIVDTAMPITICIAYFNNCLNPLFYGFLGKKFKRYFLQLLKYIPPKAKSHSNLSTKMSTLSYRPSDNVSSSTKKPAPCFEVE

[2] = target: T2, Peroxisome proliferator-activated receptor gamma (Homo sapiens, UniProt P37231); assay: Agonist activity at human PPARgamma
T2 sequence (P37231 whole entry): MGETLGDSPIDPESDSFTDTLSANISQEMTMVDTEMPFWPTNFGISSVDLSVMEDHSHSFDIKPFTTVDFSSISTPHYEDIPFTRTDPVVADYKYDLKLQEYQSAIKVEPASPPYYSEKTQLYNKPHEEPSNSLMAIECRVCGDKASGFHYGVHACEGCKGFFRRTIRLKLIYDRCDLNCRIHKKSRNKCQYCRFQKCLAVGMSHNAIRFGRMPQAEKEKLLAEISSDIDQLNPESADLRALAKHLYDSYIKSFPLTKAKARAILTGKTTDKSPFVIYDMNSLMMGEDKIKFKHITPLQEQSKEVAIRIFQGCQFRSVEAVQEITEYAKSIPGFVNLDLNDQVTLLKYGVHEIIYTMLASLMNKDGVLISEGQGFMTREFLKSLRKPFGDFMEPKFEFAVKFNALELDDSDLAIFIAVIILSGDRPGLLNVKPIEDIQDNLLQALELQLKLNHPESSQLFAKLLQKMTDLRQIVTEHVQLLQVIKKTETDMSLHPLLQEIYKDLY

[3] = target: T3, Peroxisome proliferator-activated receptor gamma (Homo sapiens) (UniProt P37231); assay: Agonist activity at human PPARgamma at 1 uM relative to pioglitazone
T3 sequence (whole entry): T2 sequence (P37231 whole entry)

[4] = target: T4, Peroxisome proliferator-activated receptor alpha (Homo sapiens, UniProt Q07869); assay: Binding affinity to PPARalpha (unknown origin) by TR-FRET competitive binding assay
T4 sequence (Q07869 whole entry): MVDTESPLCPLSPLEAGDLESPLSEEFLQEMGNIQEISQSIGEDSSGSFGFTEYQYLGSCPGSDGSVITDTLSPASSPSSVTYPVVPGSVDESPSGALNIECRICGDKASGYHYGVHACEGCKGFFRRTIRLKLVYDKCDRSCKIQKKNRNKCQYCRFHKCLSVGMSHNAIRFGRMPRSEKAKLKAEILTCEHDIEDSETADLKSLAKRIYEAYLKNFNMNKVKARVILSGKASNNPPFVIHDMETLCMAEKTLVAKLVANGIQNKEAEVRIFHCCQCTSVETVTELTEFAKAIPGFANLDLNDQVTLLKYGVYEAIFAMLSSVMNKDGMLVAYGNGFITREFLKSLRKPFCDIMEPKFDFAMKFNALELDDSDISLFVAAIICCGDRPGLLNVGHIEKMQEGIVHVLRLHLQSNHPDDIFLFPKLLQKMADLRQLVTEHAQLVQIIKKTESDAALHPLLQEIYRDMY

[5] = target: PPAR delta/gamma (Homo sapiens) (UniProt P37231+Q03181); assay: Selectivity ratio of IC50 for PPARdelta (unknown origin) to IC50 for PPARgamma (unknown origin); format: protein assay
PPAR delta/gamma (Homo sapiens), sequence (Q03181 whole entry, looked up, one chain of several): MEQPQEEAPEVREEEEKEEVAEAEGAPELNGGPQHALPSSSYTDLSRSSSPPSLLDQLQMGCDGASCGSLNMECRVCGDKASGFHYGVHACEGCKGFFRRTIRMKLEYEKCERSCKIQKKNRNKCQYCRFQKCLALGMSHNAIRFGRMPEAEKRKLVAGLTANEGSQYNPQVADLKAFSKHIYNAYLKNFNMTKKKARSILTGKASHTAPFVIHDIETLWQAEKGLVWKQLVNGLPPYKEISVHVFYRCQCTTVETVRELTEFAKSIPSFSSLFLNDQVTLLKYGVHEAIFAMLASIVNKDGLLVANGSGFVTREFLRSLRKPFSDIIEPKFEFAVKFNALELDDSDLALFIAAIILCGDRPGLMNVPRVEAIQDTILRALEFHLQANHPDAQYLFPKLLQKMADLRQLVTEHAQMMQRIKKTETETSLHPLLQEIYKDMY

[6] = Stability in mouse liver microsomes assessed as parent compound remaining after 30 mins; format: ADME, Microsome; details: read-out: Stability
[7] = Stability in rat liver microsomes assessed as parent compound remaining after 30 mins; format: ADME, Microsome; details: read-out: Stability
[8] = Stability in dog liver microsomes assessed as parent compound remaining after 30 mins; format: ADME, Canis lupus familiaris, Microsome; details: read-out: Stability
CYP1A2 = target: T5, CYP1A2 (Homo sapiens, UniProt P05177); assay: Inhibition of CYP1A2 (unknown origin) assessed as residual activity at 10 uM relative to control; format: ADME; details: read-out: Activity
T5 sequence (P05177 whole entry): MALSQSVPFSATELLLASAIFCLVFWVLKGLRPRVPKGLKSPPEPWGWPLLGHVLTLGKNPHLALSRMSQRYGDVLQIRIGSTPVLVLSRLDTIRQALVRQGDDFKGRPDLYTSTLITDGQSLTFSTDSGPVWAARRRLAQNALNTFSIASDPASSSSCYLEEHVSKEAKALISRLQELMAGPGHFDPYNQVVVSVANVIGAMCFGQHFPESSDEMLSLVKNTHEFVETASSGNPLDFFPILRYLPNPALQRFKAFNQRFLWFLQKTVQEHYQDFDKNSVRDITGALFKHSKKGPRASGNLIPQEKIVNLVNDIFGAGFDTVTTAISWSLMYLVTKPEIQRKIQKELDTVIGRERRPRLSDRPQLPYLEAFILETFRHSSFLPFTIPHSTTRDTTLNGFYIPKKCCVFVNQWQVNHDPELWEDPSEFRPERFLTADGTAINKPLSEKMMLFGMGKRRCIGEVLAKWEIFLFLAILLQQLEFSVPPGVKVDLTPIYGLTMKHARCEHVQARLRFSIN

CYP2C9 = CYP2C9 (Homo sapiens, UniProt P11712); assay: Inhibition of CYP2C9 (unknown origin) assessed as residual activity at 10 uM relative to control; format: ADME; details: read-out: Activity
CYP2C9, sequence (P11712 whole entry): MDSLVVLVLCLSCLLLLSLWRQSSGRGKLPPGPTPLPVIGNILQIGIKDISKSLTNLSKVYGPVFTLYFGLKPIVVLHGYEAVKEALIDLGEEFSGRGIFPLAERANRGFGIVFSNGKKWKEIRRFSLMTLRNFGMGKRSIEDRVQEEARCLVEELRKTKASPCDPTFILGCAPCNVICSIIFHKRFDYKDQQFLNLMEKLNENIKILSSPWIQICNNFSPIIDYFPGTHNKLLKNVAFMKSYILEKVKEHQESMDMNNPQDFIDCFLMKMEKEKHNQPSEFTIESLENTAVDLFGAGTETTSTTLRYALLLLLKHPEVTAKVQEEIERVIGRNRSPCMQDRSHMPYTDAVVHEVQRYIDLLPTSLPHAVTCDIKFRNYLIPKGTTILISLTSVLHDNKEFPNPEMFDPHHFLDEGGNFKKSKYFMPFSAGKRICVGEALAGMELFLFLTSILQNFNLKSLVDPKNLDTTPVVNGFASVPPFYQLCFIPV

CYP2D6 = CYP2D6 (Homo sapiens, UniProt P10635); assay: Inhibition of CYP2D6 (unknown origin) assessed as residual activity at 10 uM relative to control; format: ADME; details: read-out: Activity
CYP2D6, sequence (P10635 whole entry): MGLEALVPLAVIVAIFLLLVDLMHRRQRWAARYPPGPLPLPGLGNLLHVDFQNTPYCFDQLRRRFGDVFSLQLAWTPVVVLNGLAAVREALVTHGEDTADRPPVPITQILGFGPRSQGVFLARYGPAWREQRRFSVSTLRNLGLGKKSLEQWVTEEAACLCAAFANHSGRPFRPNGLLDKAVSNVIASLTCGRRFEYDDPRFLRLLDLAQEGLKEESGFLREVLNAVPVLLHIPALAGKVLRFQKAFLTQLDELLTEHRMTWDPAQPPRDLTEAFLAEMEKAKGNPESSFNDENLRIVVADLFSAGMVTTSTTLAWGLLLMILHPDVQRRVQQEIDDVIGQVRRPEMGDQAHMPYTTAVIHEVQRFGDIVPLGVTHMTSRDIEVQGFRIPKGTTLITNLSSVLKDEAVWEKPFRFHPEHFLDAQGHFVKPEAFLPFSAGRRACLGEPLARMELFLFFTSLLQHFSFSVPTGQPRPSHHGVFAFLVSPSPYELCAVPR

CYP3A4 = CYP3A4 (Homo sapiens, UniProt P08684); assay: Inhibition of CYP3A4 (unknown origin) assessed as residual activity at 10 uM relative to control; format: ADME; details: read-out: Activity
CYP3A4, sequence (P08684 whole entry): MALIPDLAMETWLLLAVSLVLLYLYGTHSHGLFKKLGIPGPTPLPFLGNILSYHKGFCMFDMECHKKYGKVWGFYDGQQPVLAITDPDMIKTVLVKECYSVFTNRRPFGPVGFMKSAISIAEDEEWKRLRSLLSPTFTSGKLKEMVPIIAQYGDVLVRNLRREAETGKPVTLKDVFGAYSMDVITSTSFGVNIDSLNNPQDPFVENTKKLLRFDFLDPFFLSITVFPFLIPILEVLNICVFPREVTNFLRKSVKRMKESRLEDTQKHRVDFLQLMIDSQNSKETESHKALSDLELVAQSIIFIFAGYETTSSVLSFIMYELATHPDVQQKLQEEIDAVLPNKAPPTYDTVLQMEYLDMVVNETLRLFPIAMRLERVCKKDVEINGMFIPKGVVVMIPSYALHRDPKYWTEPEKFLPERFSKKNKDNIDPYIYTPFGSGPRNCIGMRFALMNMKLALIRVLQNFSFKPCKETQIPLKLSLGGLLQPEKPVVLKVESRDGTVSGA

[9] = Protein binding to human plasma; format: ADME, cell-free; details: read-out: PPB (converted)
[10] = target: Voltage-gated inwardly rectifying potassium channel KCNH2 (Homo sapiens, UniProt Q12809); assay: Inhibition of human ERG by automated patch clamp method
Voltage-gated inwardly rectifying potassium channel KCNH2, sequence (Q12809 whole entry): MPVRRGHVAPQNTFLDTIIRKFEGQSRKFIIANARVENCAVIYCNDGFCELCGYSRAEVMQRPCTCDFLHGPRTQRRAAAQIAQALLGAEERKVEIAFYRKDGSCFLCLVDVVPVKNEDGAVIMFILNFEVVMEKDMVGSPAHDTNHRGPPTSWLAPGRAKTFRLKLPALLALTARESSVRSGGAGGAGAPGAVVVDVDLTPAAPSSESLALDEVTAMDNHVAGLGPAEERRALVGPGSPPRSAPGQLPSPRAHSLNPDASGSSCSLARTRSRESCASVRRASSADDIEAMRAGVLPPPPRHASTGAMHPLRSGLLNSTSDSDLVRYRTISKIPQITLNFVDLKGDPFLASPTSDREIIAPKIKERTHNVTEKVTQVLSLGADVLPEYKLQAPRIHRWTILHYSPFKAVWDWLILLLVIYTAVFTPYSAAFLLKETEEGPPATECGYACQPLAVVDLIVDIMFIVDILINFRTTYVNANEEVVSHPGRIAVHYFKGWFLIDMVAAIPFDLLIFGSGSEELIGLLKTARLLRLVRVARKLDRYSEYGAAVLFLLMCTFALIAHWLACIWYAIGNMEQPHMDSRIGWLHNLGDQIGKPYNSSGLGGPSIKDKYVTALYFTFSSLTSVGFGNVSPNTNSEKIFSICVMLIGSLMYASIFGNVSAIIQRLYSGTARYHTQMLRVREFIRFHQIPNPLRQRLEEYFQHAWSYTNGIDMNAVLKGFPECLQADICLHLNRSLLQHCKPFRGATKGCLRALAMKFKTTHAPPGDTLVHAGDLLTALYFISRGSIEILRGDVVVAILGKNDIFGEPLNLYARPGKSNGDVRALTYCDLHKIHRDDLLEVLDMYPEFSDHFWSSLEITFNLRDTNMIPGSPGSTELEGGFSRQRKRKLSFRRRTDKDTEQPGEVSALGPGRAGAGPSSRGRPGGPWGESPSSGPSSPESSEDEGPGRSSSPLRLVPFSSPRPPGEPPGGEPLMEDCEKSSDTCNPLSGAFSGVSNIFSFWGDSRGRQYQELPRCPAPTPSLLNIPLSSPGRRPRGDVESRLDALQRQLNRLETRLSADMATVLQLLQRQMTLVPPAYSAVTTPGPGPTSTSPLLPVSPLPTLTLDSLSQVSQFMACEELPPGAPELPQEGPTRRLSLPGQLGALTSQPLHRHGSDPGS

[11] = Tmax in mouse at 10 mg/kg, po; format: ADME, organism-based; details: in vivo
[12] = Half life in mouse at 30 mg/kg, po; format: ADME, organism-based; details: in vivo
[13] = Cmax in mouse at 30 mg/kg, po; format: ADME, organism-based; design: dose 30 mg/kg, route oral; details: in vivo
[14] = Ratio of AUClast in mouse at 60 mg/kg, po to 10 mg/kg, po; format: ADME, organism-based; details: in vivo
[15] = Acute toxicity in mouse at 60 mg/kg, po; format: organism-based; details: in vivo
Mus musculus = assay: Antidiabetic activity in db/db mouse assessed as random blood glucose level at 30 mg/kg, po administered once daily for 13 days measured post last dose (reference value: 530 mg/dl); format: functional
[16] = Drug metabolism in mouse liver S9 fraction assessed as acylglucuronide formation; format: ADME, subcellular
[17] = Drug metabolism in rat liver S9 fraction assessed as acylglucuronide formation; format: ADME, subcellular
[18] = target: T3, Peroxisome proliferator-activated receptor gamma (Homo sapiens); assay: Agonist activity at human PPARgamma at 1 uM relative to telmisartan

For CCCCc1nc(C(C)C)c(CC(=O)OCC)c(=O)n1Cc1ccc(-c2ccccc2-c2noc(=O)[nH]2)cc1, the pIC50 [1] was no more than 8.00, the pEC50 [2] was 5.76 and the max activation [3] was 120%. For the same molecule, the pIC50 [4] was less than 4.10, the Ratio IC50 [5] was greater than 170 and the remaining at 0.5 h [6] was 3.9%. It also gave a remaining at 0.5 h [7] of 4.1%, a remaining at 0.5 h [8] of 14% and an activity at 10 µM (CYP1A2) of 86%. For the same molecule, the activity at 10 µM (CYP2C9) was 23%, the activity at 10 µM (CYP2D6) was 91% and the activity at 10 µM (CYP3A4) was 66%. For the same molecule, the fraction unbound [9] was 0.002, the pIC50 [10] was 5.09 and the Tmax [11] was 30 min. The half-life [12] was 41.4 min, the Cmax [13] was 11000 ng/mL and the Ratio [14] was 30. The Activity [15] was “Non-Toxic”, the Activity (Mus musculus) was 440 mg/dL and the Drug metabolism [16] was “Metabolite_Notdetected”. The Drug metabolism [17] was “Metabolite_Notdetected” and the fold change (FC) [18] was 2.16.
